Results: US20230024461A1, “METHODS FOR DUAL DNA/PROTEIN TAGGING OF OPEN CHROMATIN” (Beth Israel Deaconess Medical Center, Inc., priority 2019, published 2023)

T1: PML-RARA oncogenic fusion protein (Homo sapiens, UniProt P10276+P29590)
T1 construct: PML portion (fusion partner, human Protein PML, P29590); endogenous in cells; host or cells: NB4 acute promyelocytic leukemia cells
T1 sequence (P29590+P10276 with tags, fused parts or gaps): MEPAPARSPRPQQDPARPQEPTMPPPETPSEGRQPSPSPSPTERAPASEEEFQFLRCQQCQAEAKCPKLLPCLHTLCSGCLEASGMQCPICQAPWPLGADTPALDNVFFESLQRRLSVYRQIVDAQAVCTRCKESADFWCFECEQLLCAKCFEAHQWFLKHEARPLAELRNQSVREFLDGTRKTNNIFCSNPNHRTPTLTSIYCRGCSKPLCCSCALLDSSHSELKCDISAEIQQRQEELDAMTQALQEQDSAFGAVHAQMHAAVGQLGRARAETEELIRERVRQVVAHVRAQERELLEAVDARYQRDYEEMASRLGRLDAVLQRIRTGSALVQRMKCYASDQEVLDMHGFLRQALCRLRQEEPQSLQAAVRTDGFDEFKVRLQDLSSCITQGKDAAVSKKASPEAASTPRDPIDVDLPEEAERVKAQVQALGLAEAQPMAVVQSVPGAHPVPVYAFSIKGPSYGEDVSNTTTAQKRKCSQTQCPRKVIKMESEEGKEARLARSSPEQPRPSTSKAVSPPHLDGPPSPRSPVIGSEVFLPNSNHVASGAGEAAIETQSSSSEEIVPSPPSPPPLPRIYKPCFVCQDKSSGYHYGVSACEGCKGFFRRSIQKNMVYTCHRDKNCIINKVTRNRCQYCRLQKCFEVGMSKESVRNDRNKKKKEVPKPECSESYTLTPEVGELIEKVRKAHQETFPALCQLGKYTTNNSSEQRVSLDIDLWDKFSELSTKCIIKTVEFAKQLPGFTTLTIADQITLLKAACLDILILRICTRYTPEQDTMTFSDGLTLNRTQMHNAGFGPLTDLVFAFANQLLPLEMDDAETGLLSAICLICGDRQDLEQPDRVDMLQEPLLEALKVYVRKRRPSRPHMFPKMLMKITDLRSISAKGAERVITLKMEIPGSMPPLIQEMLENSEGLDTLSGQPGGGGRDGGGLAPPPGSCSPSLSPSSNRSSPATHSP

B1: APEX2-F: FLAG-tagged APEX2 peroxidase alone, negative control probe; amino acid SEQ ID NO: 21 (protein)
chain: MGKSYPTVSADYQDAVEKAKKKLRGFIAEKRCAPLMLRLAFHSAGTFDKGTKTGGPFGTIKHPAELAHSANNGLDIAVRLLEPLKAEFPILSYADFYQLAGVVAVEVTGGPKVPFHPGREDKPEPPPEGRLPDPTKGSDHLRDVFGKAMGLTDQDIVALSGGHTIGAAHKERSGFEGPWTSNPLIFDNSYFTELLSGEKEGLLQLPSDKALLSDPVFRPLVDKYAADEDAFFADYAEAHQKLSELGFADADYKDDDDK
modifications: FLAG tag

Tests used:
[1] = target: T1, PML-RARA oncogenic fusion protein; experiment: Western blotting analysis of the PML epitope; format: cell-based; conditions: NB4 cells, 48 hours ATRA versus DMSO
Procedure: Western blotting analysis. Whole cell or nuclear lysates were generated by resuspending cells or nuclei in RIPA (Boston BioProducts) supplemented with 1× cOmplete EDTA-free protease inhibitor cocktail (Roche). Lysates were incubated on ice for 30 minutes, sonicated via a Sonic Dismembrator 100 (Fisher Scientific) at setting 3 with 3-4 pulses of 15 seconds on/off on ice, and treated with benzonase for an additional 30 minutes on ice. Lysates were clarified by centrifugation (15,000×g, 20 minutes, 4° C.) and their concentrations quantified via the detergent-compatible Bradford assay (Thermo Fisher Scientific). All Western blots were run on NuPAGE 4-12% Bis-Tris protein gels (Thermo Fisher Scientific) and transferred to 0.2 μm nitrocellulose membranes (GE Healthcare). Membranes were blocked with 3% milk in PBS-T and incubated overnight with primary antibody and subsequently with secondary antibody after brief washing with PBS-T. Chemiluminescence was determined by applying ECL Western Blotting detection reagent (GE Healthcare) to membranes and imaging on an Amersham Imager 600 (GE Healthcare). Membranes were stripped with Restore PLUS Stripping Buffer (Thermo Fisher Scientific). Primary antibodies used were anti-FLAG M2 (mouse, Sigma-Aldrich, F1804, 1:2000), anti-PCNA (mouse, PC10, Santa Cruz Biotechnology sc-56, 1:1000), and anti-PML (rabbit, Bethyl A301-[MUT], 1:1000). […]

NB4 cells [2] = experiment: Cell proliferation assay (CellTiter-Glo); format: cell-based, human; conditions: 1 μM ATRA, 48 hours, versus DMSO
Procedure: Cell proliferation assay. NB4 cells were seeded at a density of 5e5 cells/mL subjected to either DMSO or 1 μM ATRA. After 48 hours, 50 μL cell suspension was added to 50 μL CellTiter-Glo reagent, incubated for 10 minutes at room temperature, and assayed for luminescence with a SpectraMax iD3 plate reader.

NB4 cells [3] = experiment: Granulocytic differentiation analysis (flow cytometry); format: cell-based, human; conditions: 1 μM ATRA, 48 hours, versus DMSO
Procedure: NB4 cells treated either with DMSO or 1 μM ATRA were washed with 2% fetal bovine serum prior to staining. Anti-human CD11b-PE-Cy7 antibody conjugate (Clone: ICRF44, Biolegend Catalog #301321; 1:100) and anti-human CD11c-APC antibody conjugate (Clone: B-1y6, BD Pharmingen #559877; 1:100) were incubated with samples for 20 minutes and then washed to remove excess antibody. Stained samples were analyzed on a Beckman Coulter CytoFLEX LX flow cytometer with the CytoExpert v2.3.1.22 software. Data were analyzed with FlowJo v10.0.7.

NB4 cells [4] = experiment: iDAPT-MS of NB4 nuclei, ATRA versus DMSO; format: cell-based, human; conditions: TP3 probe
Procedure: DNA and protein tagging by iDAPT. All iDAPT proteomic labeling assays were performed as described below unless indicated otherwise. 2.5 μmol MEDS-A/B, 2 μmol enzyme, and 1 μmol hemin chloride per channel were incubated at room temperature for 1 hour. 1e7 cells per sample were washed (500×g, 5 minutes, 4° C.), lysed and triturated in 100 μL LB1 (10 mM Tris-HCl pH 7.5, 10 mM NaCl, 3 mM MgCl2, 1% BSA, 0.01% digitonin, 0.1% Tween-20, 0.1% NP-40, and 1× cOmplete EDTA-free protease inhibitor cocktail [Roche]) for 3 minutes, and subsequently supplemented with an additional 1 mL of LB2 (10 mM Tris-HCl pH 7.5, 10 mM NaCl, 3 mM MgCl2, 1% BSA, 0.1% Tween-20, and 1× protease inhibitor). Nuclei were pelleted (500×g, 10 minutes, 4° C.), resuspended with tagmentation reaction mixture (20% dimethylformamide, 10 mM MgCl2, 20 mM Tris-HCl pH 7.5, 33% 1×PBS, 1% BSA, 0.01% digitonin, 0.1% Tween-20, 500 μM biotin-phenol, 1× protease inhibitor, and 2 pmol enzyme equivalent of enzyme:DNA:heme complex in a total volume of 500 μL), and incubated at 37° C. for 30 minutes with agitation on a thermomixer (1,000 rpm). […] Lysates were clarified by centrifugation (15,000×g, 20 minutes, 4° C.), quantified via the detergent-compatible Bradford assay (Thermo Fisher Scientific), and subjected to either Western blotting or quantitative mass spectrometry analyses as described below. […]

[5] = Peroxidase activity assay (Amplex UltraRed/resorufin fluorescence); format: biochemical; conditions: 1 mM hydrogen peroxide, one minute
Procedure: Peroxidase activity assay. 5 pmol enzyme was incubated with 2.5 pmol hemin chloride (dissolved in DMSO, Cayman Chemical) for 1 hour at room temperature. This molar ratio was selected given reports of APEX2 maximal heme occupancy between 40-57%. Heme:protein complexes were then subjected to 50 μM Amplex UltraRed (Thermo Fisher Scientific) and 1 mM hydrogen peroxide for 1 minute at room temperature in a total volume of 100 μL with 1×PBS. Reactions were then quenched with 100 μL 2× quenching solution (10 mM Trolox, 20 mM sodium ascorbate, and 20 mM NaN3 in 1×PBS), and fluorescence intensities were measured on a SpectraMax iD3 plate reader, with excitation at 530 nm and emission at 590 nm.
Peroxidase activity assay. 5 pmol enzyme was incubated with 2.5 pmol hemin chloride (Cayman Chemical, dissolved in DMSO) for 1 hour at room temperature. This molar ratio was selected given reports of APEX2 maximal heme occupancy between 40-57%. […] Reactions were then quenched with 100 μL 2× quenching solution (10 mM Trolox, 20 mM sodium ascorbate, and 20 mM NaN3 in 1×PBS), and fluorescence intensities were measured on a SpectraMax iD3 plate reader with the SoftMax Pro v7.0.3 software, with excitation at 530 nm and emission at 590 nm.

HEK293T nuclei = experiment: iDAPT protein labeling, western blot of labeled nuclear lysates; format: biochemical, human; conditions: extracted HEK293T nuclei
Procedure: DNA and protein tagging by iDAPT. All iDAPT proteomic labeling assays were performed as described below unless indicated otherwise. 2.5 μmol MEDS-A/B, 2 μmol enzyme, and 1 μmol hemin chloride per channel were incubated at room temperature for 1 hour. 1e7 cells per sample were washed (500×g, 5 minutes, 4° C.), lysed and triturated in 100 μL LB1 (10 mM Tris-HCl pH 7.5, 10 mM NaCl, 3 mM MgCl2, 1% BSA, 0.01% digitonin, 0.1% Tween-20, 0.1% NP-40, and 1× cOmplete EDTA-free protease inhibitor cocktail [Roche]) for 3 minutes, and subsequently supplemented with an additional 1 mL of LB2 (10 mM Tris-HCl pH 7.5, 10 mM NaCl, 3 mM MgCl2, 1% BSA, 0.1% Tween-20, and 1× protease inhibitor). Nuclei were pelleted (500×g, 10 minutes, 4° C.), resuspended with tagmentation reaction mixture (20% dimethylformamide, 10 mM MgCl2, 20 mM Tris-HCl pH 7.5, 33% 1×PBS, 1% BSA, 0.01% digitonin, 0.1% Tween-20, 500 μM biotin-phenol, 1× protease inhibitor, and 2 pmol enzyme equivalent of enzyme:DNA:heme complex in a total volume of 500 μL), and incubated at 37° C. for 30 minutes with agitation on a thermomixer (1,000 rpm). 5 μL of tagmentation mix was saved for quality assessment as described above for ATAC-seq/iDAPT-seq sample preparation. The remaining nuclear suspension was then washed 2× with 1×PBS supplemented with 500 μM biotin-phenol, 1% BSA, 0.1% Tween-20, and 1× protease inhibitor (3000×g, 5 minutes, 4° C.) and labeled with 1 mM hydrogen peroxide and 500 μM biotin-phenol for 1 minute in 1×PBS with 1× protease inhibitor in a volume of 500 μL. Peroxidation reactions were quenched with 500 μL 2× quenching buffer (10 mM Trolox, 20 mM sodium ascorbate, 20 mM NaN3, and 1× protease inhibitor in 1×PBS). Labeled nuclei were then pelleted, washed with 1× quenching buffer, resuspended in 500 μL RIPA containing protease inhibitors, and frozen at −80° C. Lysates were thawed on ice, sonicated via a Sonic Dismembrator 100 (Fisher Scientific, setting 3, 15 seconds, 4 pulses), and incubated on ice for 30 minutes after the addition of 1 μL benzonase (EMD Millipore). Lysates were clarified by centrifugation (15,000×g, 20 minutes, 4° C.), quantified via the detergent-compatible Bradford assay (Thermo Fisher Scientific), and subjected to either Western blotting or quantitative mass spectrometry analyses as described below. For NB4 cell analysis, an additional endogenous peroxidase blocking step was added after nuclear extraction and before tagmentation: nuclei were resuspended in 500 μL 1×PBS containing 1% BSA, 0.03% hydrogen peroxide, and 0.1% NaN3 and incubated on ice for 30 minutes. Nuclei were pelleted and washed 4× with 1×PBS/1% BSA (3000×g, 5 minutes, 4° C.). Residual hydrogen peroxide was monitored by colorimetric assessment of supernatant via Quantofix peroxides test stick (Sigma).
Western blotting analysis. Whole cell or nuclear lysates were generated by resuspending cells or nuclei in RIPA (Boston BioProducts) supplemented with 1× cOmplete EDTA-free protease inhibitor cocktail (Roche). […] Lysates were clarified by centrifugation (15,000×g, 20 minutes, 4° C.) and their concentrations quantified via the detergent-compatible Bradford assay (Thermo Fisher Scientific). […] Membranes were blocked with 3% milk in PBS-T and incubated overnight with primary antibody and subsequently with secondary antibody after brief washing with PBS-T. Chemiluminescence was determined by applying ECL Western Blotting detection reagent (GE Healthcare) to membranes and imaging on an Amersham Imager 600 (GE Healthcare). […]

| Molecule | effect on PML-RARA oncogenic fusion protein [1] | proliferation (cell counts) (NB4 cells [2]) | differentiation (NB4 cells [3]) | enrichment of PU.1/SPI1, CEBPB, and CEBPE on open chromatin (NB4 cells [4]) | enrichment of RARA on open chromatin (NB4 cells [4]) | peroxidase activity via resorufin fluorescence [5] | peroxidase-dependent biotin signal (HEK293T nuclei) |
| --- | --- | --- | --- | --- | --- | --- | --- |
| CC1=C(/C=C/C(C)=C/C=C/C(C)=C/C(=O)O)C(C)(C)CCC1 [ATRA, All-trans retinoic acid] | degradation of the PML-RARA oncogenic fusion protein | decreased proliferation | granulocytic differentiation | positive enrichment | negative enrichment |  |  |
| B1 |  |  |  |  |  | detected | low signal |
